Patent US6608109B2, “Composition comprising L-arginine as a muscle growth stimulant and use thereof” (priority 1991, dated 2003)

Experiments:
[1] = Oral administration of M2 to test subjects: muscle mass and bodyfat; format: in vivo, human
Method: The above composition (identified as M2) was administered to test subjects. Those tests and the results are described in Example 2.

[2] = Oral administration of M2 / L-arginine to test subjects: side-effects and tolerance; format: in vivo, human; details: L-arginine taken alone on an empty stomach
Description: The subject was placed on L-Arginine M2 therapy.

## N=C(N)NCCCC(N)C(=O)O [L-Arginine, 2-amino-5-guanidinovaleric acid]
[1]; subject (1)
  Therapeutic dose for this subject: 15 grams L-Arginine per day
[1]; subject (2), totally empty stomach: 3+ hours
  dose required for Growth Hormone response out of pituitary gland: 15-20 grams
[2]
  disadvantages (side effects) from ingestion: headache, diarrhea, flatulence, depletion of electrolytes
